In US20230158006A1, “USE OF DIRECT THROMBIN INHIBITORS IN THE TREATMENT OF NEURODEGENERATIVE DISEASES” (priority 2020, published 2023):
Entries after “also recorded” stand apart in the source; their conditions may differ.

Legend:
[1] = tested on: reactive oxygen species in brain endothelial cell cultures; assay: ROS levels (DHE) in cultured brain endothelial cells; type: cell-based, rat; details: for hypoxia-induced increase in ROS generation: 6 h hypoxia, p<0.001; for ROS level, mean signal intensity of DHE stained cells to non-stained cells: DTI 1 nM, mean ± SD
Description: (§1) Culture and hypoxic exposure of rat brain endothelial cells: Brain endothelial cell cultures were obtained from rat brain micro-vessels, as previously described (Diglio et al., 1993). The purity of these cultures was confirmed using antibodies to the endothelial cell surface antigen Factor VIII. Endothelial cells used in this study (passages 8-15) were maintained in Dulbecco's modified Eagle's medium (DMEM, Sigma-Aldrich, St. Louis, Mo.) supplemented with 10% fetal bovine serum (FBS), 1% antibiotic/antimycotic, and 2 mM glutamine. Confluent endothelial cell cultures were washed three times with Hank's balanced salt solution (HBSS, Gibco, Grand Island, N.Y.) and then incubated at 37° C. with serum-free DMEM for 6 h under hypoxic (1% 02) or normoxic (21% 02) conditions.
(§2) Detection of reactive oxygen species in cell culture and mouse brain tissue sections: Brain endothelial cell cultures were grown on coverslips in 24-well plates, incubated at 37° C. in serum free media with or without dabigatran (DTI, 1 nM) and exposed to hypoxic (6 h, 1% 02) or normoxic (21% 02) conditions. Sections from frozen brain (10-20 µm thickness) were placed on coverslips in 24-well plates with 0.5 ml of PBS at room temperature. Brain sections and cell cultures were incubated with 5 pM of dihydroethidium (DH E) fluorescence dye (Life Technologies, Grand Island, N.Y.; D23107) and Hoechst33342 NucBlue® stain (Life Technologies, R37605) for 30 min in the dark at room temperature. DHE is a cell permeable compound which reacts with intracellular ROS to form oxyethidium, which emits a bright red color detectable by fluorescent microscopy. Following two washes with PBS, images were captured immediately using an Olympus IX71 microscope and analyzed using HAMAMATSU imaging software.
Brain endothelial cell cultures were incubated in serum-free media or serum free media plus DTI (1 nM) and exposed to hypoxia (1% 02) or normoxic (21% 02) conditions for 6 h. The cells were incubated for 30 min with 5 pM of Dihydroethidium (DHE, red) fluorescent dye and NucBlue stain (blue). ROS generation was assessed by quantitation of signal intensities of DHE stained cells to non-stained cells. Data represent mean signal intensity of DHE stained cells to non-stained cells±SD from at least 3 separate experiments performed in duplicate. ***p<0.001 vs. Control; a p<0.001 vs. Hypoxia.

reactive oxygen species = assay: ROS level (DHE) in frontal cortex brain sections of AD transgenic mice; type: in vivo; details: DTI for 34 weeks, p<0.001 vs untreated AD mice
Experimental: Administration of thrombin inhibitor to mice and immunofluorescent staining of mice brain sections: Adult wild-type 3×TgAD—LaFerla (control) and 3×TgAD—LaFerla mice were purchased at 8 weeks of age from The Jackson Laboratory (Bar Harbor, Me.). Daily administration of the orally available direct thrombin inhibitor (DTI) dabigatran etexylate (Pradaxa®, Boehringer Ingelheim, Germany) (100 mg/kg) in PBS to AD mice and vehicle to control mice began at 18 weeks of age and continued daily for 34 weeks. DTI was administered in food. To ensure all food, and therefore drug, was consumed while maintaining ad libitum weight, mice were weighed, and food intake monitored daily. […]
as §2, with “Sections from frozen brain (10-20 µm thickness) were placed on coverslips in 24-well plates with 0.5 ml of PBS at room temperature.” left out, “DHE is a cell permeable compound which reacts with intracellular ROS to form oxyethidium, which emits a bright red color detectable by fluorescent microscopy.” left out, “software. […]” for “software.”

brain oxidative stress = assay: Short treatment of transgenic Tg4510 AD mice, brain oxidative stress; type: in vivo; details: non-published results
Experimental: Fifteen-month-old Tg4510 mice (The Jackson Laboratory, Bar Harbor, Me.) treated for one week with vehicle dimethyl sulfoxide (DMSO) (Spectrum Chemicals & Laboratory Products, New Brunswick, N.J.) or Dabigatran (Pradaxa®, Boehringer Ingelheim Pharmaceuticals, Inc., Ridgefield, Conn.) at doses of 100 mg/kg via oral gavage. Wild-type control mice were treated with vehicle for one week. Brains were collected and homogenized and protein expression was evaluated using western blot.

[2] = tested on: HIF-1a, thrombin, IL-6, MCP-1, MMP2 mRNA; assay: Real time PCR of brain tissue from AD transgenic mice; type: in vivo; details: 100 mg/kg daily for 34 weeks
Experimental: (§3) Administration of thrombin inhibitor to mice and immunofluorescent staining of mice brain sections: Adult wild-type 3×TgAD—LaFerla (control) and 3×TgAD—LaFerla mice were purchased at 8 weeks of age from The Jackson Laboratory (Bar Harbor, Me.). Daily administration of the orally available direct thrombin inhibitor (DTI) dabigatran etexylate (Pradaxa®, Boehringer Ingelheim, Germany) (100 mg/kg) in PBS to AD mice and vehicle to control mice began at 18 weeks of age and continued daily for 34 weeks. DTI was administered in food. To ensure all food, and therefore drug, was consumed while maintaining ad libitum weight, mice were weighed, and food intake monitored daily. All animal procedures were performed in accordance with NIH “Guide for the Care and Use of Laboratory Animals” and Texas Tech University Health Sciences Center Institutional Animal Care and Use Committee (IACUC) guidelines.
Real-time PCR analysis: RNA from cultured rat brain endothelial cells was prepared using the TRI Reagent RT (Molecular Research Center, Inc., Cincinnati, Ohio), according to manufacturer protocol. […] Fold difference between two samples (relative quantification) was determined by use of the delta-delta method [S1/S2=2−(T1−T2)], where S1 and S2 represent samples 1 and 2, and T1 and T2 represent the threshold cycles of samples 1 and 2, respectively.

[3] = tested on: rat brain endothelial cells; assay: Cell survival by MTT assay, brain endothelial cell cultures exposed to hypoxia or normoxia; type: cell-based
Description: as §1
Measurement of cell survival by MTT assay: Cells were washed with phosphate buffer saline (PBS) and incubated with the MTT reagent 3-(4,5-dimethylthiazol-2-yl)-2-5-diphenyl tetrazolium bromide (1:40 dilution) for 5-10 min at 37° C. The cells convert the MTT reagent to formazan which is quantified by colorimetric assay (Cell Titer 95 Aqueous solution cell proliferation assay, Promega, Madison, Wis.). The formazan product was read at 490 nm. The number of control cells, i.e., viable cells not exposed to any treatment, was defined as 100%.
Brain micro-vessel endothelial cell cultures were incubated with the DTI dabigatran (10 pM-100 nM), exposed to hypoxia for 6 h and cell viability measured by MTT assay. There was a modest (19%) but significant (p<0.05) increase in cell survival at 1-10 nM DTI while DTI doses in excess of 100 nM were toxic.

TNFa, IL-6, IL-8, MMPs = assay: Production of inflammatory proteins from endothelial cells in AD models
[4] = tested on: HIF-1a, thrombin, IL-6, MCP-1, MMP2 mRNA; assay: Real-time PCR of inflammatory gene expression in brain endothelial cells exposed to 6 h hypoxia; type: cell-based, rat; details: 1 nM, p<0.01-0.001, FIG. 1
Description: as §1
Real-time PCR analysis: RNA from cultured rat brain endothelial cells was prepared using the TRI Reagent RT (Molecular Research Center, Inc., Cincinnati, Ohio), according to manufacturer protocol. […] Fold difference between two samples (relative quantification) was determined by use of the delta-delta method [S1/S2=2−(T1−T2)], where S1 and S2 represent samples 1 and 2, and T1 and T2 represent the threshold cycles of samples 1 and 2, respectively. […]

[5] = tested on: HIF-1a, thrombin, IL-6, MCP-1, MMP2; assay: Immunofluorescence of cerebrovascular expression of HIF-1a and inflammatory proteins in AD transgenic mice; type: in vivo; details: 100 mg/kg daily for 34 weeks
Experimental: as §3
Mice were euthanized, and brain tissue fixed with 10% neutral buffered formalin (NBF). The brain was removed and 1 mm blocks of tissue from cerebral cortex were post fixed in 10% NBF for additional 12 h and embedded in paraffin. […] Sections (3 per mouse) were incubated with DAPI solution at room temperature for 25 min and viewed using an Olympus IX71 microscope and quantified with HAMAMATSU imaging software. […]

Compound: CCCCCCOC(=O)NC(=N)c1ccc(NCc2nc3cc(C(=O)N(CCC(=O)OCC)c4ccccn4)ccc3n2C)cc1
- hypoxia-induced increase in ROS generation [1]: inhibited
- hypoxia-induced increase in ROS generation ([1]; listed as DTI): blocked
- ROS level, mean signal intensity of DHE stained cells to non-stained cells ([1]; Control + DTI: normoxic (21% O2) 6 h): 0.65±
- ROS level, mean signal intensity of DHE stained cells to non-stained cells ([1]; Hypoxia + DTI: hypoxia (1% O2) 6 h, p<0.001 vs. Hypoxia): 0.92 ± 0.06a
- ROS generation (DHE level) in brain sections (reactive oxygen species; FIG. 4): inhibited; also recorded: significantly decreases expression
- ROS generation (DHE level) in brain sections (reactive oxygen species; FIG. 4, listed as DTI): decreased DHE level
- brain oxidative stress (brain oxidative stress): lowering brains' oxidative stress
- RNA levels of HIF-1a, thrombin, IL-6, MCP-1, MMP2 in brain tissue ([2]; p<0.01 to p<0.001, FIG. 3): reduces expression
- RNA levels of HIF-1a, thrombin, IL-6, MCP-1, MMP2 in brain tissue ([2]; p<0.01 to p<0.001, FIG. 3, listed as DTI): decrease in RNA levels
- increase in cell survival ([3]; hypoxia 6 h, 1-10 nM DTI, p<0.05): 19%
- DTI doses toxic to cells ([3]; hypoxia 6 h, MTT): > 100 nM
- effect on cell survival under normoxic conditions ([3]; normoxic, doses under 100 nM, data not shown): did not affect cell survival
- production of TNFa, IL-6, IL-8, MMPs and other inflammatory proteins from endothelial cells (TNFa, IL-6, IL-8, MMPs): reducing the production
- hypoxia-mediated effects on inflammatory gene expression (HIF-1a, thrombin, IL-6, MCP-1, MMP2 mRNA) [4]: reduced hypoxia-mediated effects on inflammatory gene expression
- cerebrovascular expression of HIF-1a, thrombin, IL-6, MCP-1, MMP2 proteins ([5]; FIG. 2): significantly decreases expression
- cerebrovascular expression of HIF-1a, thrombin, IL-6, MCP-1, MMP2 proteins ([5]; FIG. 2, listed as DTI): reduced expression of these proteins
